Measured values taken from US5246989A, “Photochromic compound, composition and use thereof” (priority 1990, dated 1993).

Key:
[1] = Photochromic characteristics of cast polymethyl methacrylate film (coloration under mercury lamp, fading); type: physicochemical; settings: PMMA film, 1.0×10^-4 mol/g, 0.1 mm, 35° C.
[2] = Photochromic characteristics of 2 mm molded thermosetting resin piece containing the spiroxazine; type: physicochemical
Procedure: The compound synthesized in Example 1, which was represented by the following formula: [drawing 286] was dissolved and dispersed in polymethyl methacrylate with the aid of benzene, and a cast film was prepared on a slide glass sheet (11.2 cm×3.7 cm) so that the concentration of the compound in the film was 1.0×10^-4 mol/g and the thickness of the film was 0.1 mm. The photochromic film was irradiated with rays of a mercury lamp (SHL-100 supplied by Toshiba) located 10 cm apart from the film at 35° C.+1° C. for 60 seconds to effect coloration in the film, and the photochromic characteristics were examined with respect to items described below.
Maximum absorption wavelength (λmax):
The maximum absorption wavelength λmax of the colored film was determined by using a spectrophotometer (220 A supplied by Hitachi).
After 60 seconds' irradiation under the above-mentioned conditions, the absorbance at the maximum absorption wavelength was measured.
The absorbance at the maximum absorption wavelength of the unirradiated film was measured. Half-value period t^1/2 :
After 60 seconds' irradiation, the time required for reduction of the absorbance of the film to 1/2 of [ε(60 seconds)-ε(0 second)] was measured.
0.4 parts by weight of the spiroxazine synthesized in Example 1 was added to a composition of 70 parts by weight of chlorostyrene with 30 parts by weight of 2,2-bis(3,5-dibromo-4-methacryloyloxyethoxyphenyl) propane. One part by weight of perbutyl ND was added to the composition as an initiator of radical polymerization and was sufficiently mixed. The mixture liquid was casted into a mold comprising a glass plate and a gasket made of an ethylene-vinyl acetate copolymer and was polymerized in the mold. The mold was placed in an air oven. Polymerization was carried out by gradually elevating the temperature of the air oven from 30° C. to 90° C. for 18 hours and keeping it at 90° C. over a period of 2 hours. After the termination of the polymerization, the mold was removed from the air oven. After the mold was allowed to cool, the polymer molded piece was removed from the glass of the mold.
The photochromic characteristics of the obtained molded piece having a thickness of 2 mm was measured in the same method as Example 65.
Excepting that the kinds and amounts of the monomers and the spiroxazine used in Example 129 were changed and polymerization was carried out by a known means depending on the monomers, Examples 130 to 144 are identical with Example 129.

[3] = Example 129: BMDBP/c1-st (30/70), compound 0.4 parts, 2 mm
[4] = Example 130: ADC (100), compound 0.001 parts
[5] = Example 131: TMP-TAC(100), compound 0.4 parts
[6] = Example 132: BADBP/DAP (60/40), compound 0.4 parts
[7] = Example 133: BMDBP/st (50/50), compound 10 parts
[8] = Example 134: DCIPF/st (70/30), compound 70 parts
[9] = Example 135: EGDMA/st (50/50), compound 30 parts
[10] = Example 136: monomer composition drawn as drawing 288, compound 1.0 parts
[11] = Example 137: monomer composition drawn as drawing 289, compound 0.6 parts
[12] = Example 138: DVB/PETTP(60/40), compound 0.03 parts
[13] = Example 139: XIC/DME (58/42), compound 0.2 parts
[14] = Example 140: XIC/HPA/DVB (10/50/40), compound 0.4 parts
[15] = Example 141: MMA/DEGDMA (70/30), compound 0.1 parts
[16] = Example 142: BADBPO/TBBM/DAP (50/30/20), compound 0.1 parts
[17] = Example 143: HEMA/XIC/BMA (30/20/50), compound 0.1 parts
[18] = Example 144: DEGDMA/BMA (40/60), compound 0.1 parts

t1/2 (half-value period of absorbance after irradiation) ([1]; after 60 seconds' irradiation): 18 s | λ max (maximum absorption wavelength of the colored film) ([1]; mercury lamp 60 seconds): 601 | ε (60 seconds)-ε (0 second) ([1]; mercury lamp 60 seconds, absorbance at λmax): 1.4 | t1/2 [2, 3]: 20 s | ε(60 sec)-ε(0 sec) [2, 3]: 1.6 | λmax [2, 3]: 604 nm | t1/2 [2, 4]: 24 s | ε(60 sec)-ε(0 sec) [2, 4]: 0.9 | λmax [2, 4]: 607 nm | t1/2 [2, 5]: 28 s | ε(60 sec)-ε(0 sec) [2, 5]: 1.5 | λmax [2, 5]: 607 nm | t1/2 [2, 6]: 21 s | ε(60 sec)-ε(0 sec) [2, 6]: 1.5 | λmax [2, 6]: 606 nm | t1/2 [2, 7]: 20 s | ε(60 sec)-ε(0 sec) [2, 7]: 1.7 | λmax [2, 7]: 604 nm | t1/2 [2, 8]: 18 s | ε(60 sec)-ε(0 sec) [2, 8]: 1.8 | λmax [2, 8]: 604 nm | t1/2 [2, 9]: 19 s | ε(60 sec)-ε(0 sec) [2, 9]: 1.7 | λmax [2, 9]: 604 nm | t1/2 [2, 10]: 20 s | ε(60 sec)-ε(0 sec) [2, 10]: 1.6 | λmax [2, 10]: 601 nm | t1/2 [2, 11]: 22 s | ε(60 sec)-ε(0 sec) [2, 11]: 1.6 | λmax [2, 11]: 601 nm | t1/2 [2, 12]: 22 s | ε(60 sec)-ε(0 sec) [2, 12]: 1.5 | λmax [2, 12]: 606 nm | t1/2 [2, 13]: 19 s | ε(60 sec)-ε(0 sec) [2, 13]: 1.5 | λmax [2, 13]: 604 nm | t1/2 [2, 14]: 19 s | ε(60 sec)-ε(0 sec) [2, 14]: 1.6 | λmax [2, 14]: 604 nm | t1/2 [2, 15]: 18 s | ε(60 sec)-ε(0 sec) [2, 15]: 1.6 | λmax [2, 15]: 601 nm | t1/2 [2, 16]: 23 s | ε(60 sec)-ε(0 sec) [2, 16]: 1.6 | λmax [2, 16]: 606 nm | t1/2 [2, 17]: 22 s | ε(60 sec)-ε(0 sec) [2, 17]: 1.6 | λmax [2, 17]: 601 nm | t1/2 [2, 18]: 19 s | ε(60 sec)-ε(0 sec) [2, 18]: 1.6 | λmax [2, 18]: 601 nm
Compound: CN1c2ccccc2C2(CCCCC2)C12C=Nc1ccc3ccccc3c1O2 (stereo not drawn) [Compound 1]
